The source of these data is article PMC7840129, “Structural basis for heme-dependent NCoR binding to the transcriptional repressor REV-ERBβ” (Science Advances, 2021).

This experiment deals with REV-ERBβ LBD cobound to heme. Description: Crystal structures of REV-ERBβ LBD cobound to heme and NCoR ID peptides. It is filed as binding, human. The settings on record: ID1 PDB 6WMQ, ID2 PDB 6WMS. As for the experimental part:
After overnight incubation at 4°C with peptide, REV-ERBβ LBD cobound to heme and peptide was buffer-exchanged into Hepes gel filtration buffer to remove unbound and concentrated to 15 mg/ml (ID2-bound) or 5 mg/ml (ID1-bound). Buffer-exchanged proteins were screened for conditions that produced crystals using the NR LBD (Molecular Dimensions), Structure (Molecular Dimensions), Index (Hampton Research), and PEG/Ion (Hampton Research) kits and sitting drop method (1-μl reservoir solution added to 1-μl drop of protein solution) at 22°C. REV-ERBβ LBD crystals cobound to heme and NCoR ID2 grew in 0.2 M Mg formate dihydrate and 20% (w/v) PEG 3350 (PEG/Ion), and REV-ERBβ LBD crystals cobound to heme and NCoR ID1 grew in 2.0 M ammonium sulfate, 0.1 M Na Hepes (pH 7.5), and 2% PEG 400 (Structure). Crystals in their respective condition were supplemented with 10% glycerol and flash-cooled in liquid nitrogen. X-ray diffraction data were collected at the Advanced Light Source synchrotron (Lawrence Berkeley National Laboratory) in 180 images with a 1° rotation per image. Data were processed, indexed, and scaled using Mosflm and Scala in CCP4 (Collaborative Computational Project No. 4) ([32], [33]). […]
Structures were aligned, and RMSD values were calculated in PyMOL using the “align” command with cycles set to 0 (no outliers were removed). […]

With `CC[C@H](C)[C@H](NC(=O)[C@H](CC(=O)O)NC(=O)[C@H](CCC(=O)O)NC(=O)[C@H](CC(C)C)NC(=O)CNC(=O)[C@H](CC(C)C)NC(=O)[C@H](CC(N)=O)NC(=O)[C@H](CO)NC(=O)[C@H](C)NC(=O)[C@@H]1CCCN1C(=O)[C@H](CC(=O)O)NC(C)=O)C(=O)N[C@H](C(=O)N[C@@H](CCCNC(=N)N)C(=O)N[C@@H](CCCCN)C(=O)N[C@@H](C)C(=O)N[C@@H](CC(C)C)C(=O)N[C@@H](CCSC)C(=O)NCC(=O)N[C@@H](CO)C(=O)N[C@@H](Cc1ccccc1)C(=O)N[C@@H](CC(=O)O)C(=O)N[C@@H](CC(=O)O)C(=O)N[C@@H](CCCCN)C(N)=O)[C@@H](C)CC` [NCoR ID2 peptide], the “interaction of bound ID peptide in crystal structure (in words)” value was “formed electrostatic interactions with the conserved charge clamp residue K421 on helix 3”.
For the compound “Ac-RTHRLITLADHICQIITQDFARN-NH2 [NCoR ID1 peptide]”, the “interaction of bound ID peptide in crystal structure (in words)” value is recorded as “formed electrostatic interactions with the conserved charge clamp residue K421 on helix 3”.
